Here are results for 47 compounds from patent US6284768A, “Src family SH2 domain inhibitors” (Boehringer Ingelheim Pharmaceuticals, Inc., priority 1999, dated 2001).

Molecules are shown by their SMILES.

The test concerns the target T1, p56lck GST-SH2 (lck SH2 domain) (Homo sapiens, UniProt P06239).
T1 construct: GST (N)
The test can be described thus: Receptor-ligand equilibrium binding constants by surface plasmon resonance (biosensor), lck SH2 domain. The note with it: Table 1, compounds of formula (II). The protocol: The general methods for the determination of Receptor-Ligand Kinetic and Equilibrium Binding Constants using Surface Plasmon Resonance as applied to the lck SH2 Domain have been described in: M. M. Morelock, R. H. Ingraham, R. Betageri.
General Biosensor Methods.
The mobile phase buffer, 10 mM HEPES, pH 7.4, 150 mM NaCl, and 0.05% P-20, was maintained at a flow rate of 5 μL/min in all experiments. All buffers and protein solutions were filtered through a 0.2 um filter and degassed immediately before use.
Strepavidin was diluted to 0.25 mg/ml in 20 mM NaOAc buffer, pH 4.5 and immobilized by free amine coupling to approximately 3000 RU for all 4 flow cells from a single sensor chip .
Surface Kd Determinations.
The surface was regenerated by 4μL of 20 mM HCl followed by 4 μL of 150 mM Tris base. The values used in the analysis were the equilibrium plateau values from which the sample refractive index has been subtracted. For the data analyzed for linear function the equilibrium plateau values without the sample refractive index subtracted were used. Free solution Kd determinations. In a 96 well microtiter plate 20 nM SH2 domain suspended in running buffer containing 0.2 mg/ml BSA and 1 mM DT'T was distributed in 100 μL per well. The highest concentration of compound tested was added to the last well and titrated with 2 fold dilutions for a final of 10 concentrations to be run. 25 μL of the mixture was injected over a strepavidin-biotin-ε-aminohexanoic acid-EGQpYEEIPIA surface and regenerated with 4 μL of 20 mM HCl. […], of 150 mM Tris base was injected after every 11 samples. Typically 8 assays were run in an overnight programmed run.

T1 sequence (P06239 127-224 limits assumed): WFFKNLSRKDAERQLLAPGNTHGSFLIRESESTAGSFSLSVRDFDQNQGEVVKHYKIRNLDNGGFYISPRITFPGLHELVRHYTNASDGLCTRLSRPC

As for `COc1ccc(Cn2ccc(C)c(NC(=O)[C@H](Cc3ccc(CC(=O)O)cc3)NC(=O)COc3nccc4ccccc34)c2=O)cc1` [Compound 85], binding was characterised by a dissociation constant (Kd) of 2.6 µM. In the case of `COc1ccc(Cn2ccc(C)c(NC(=O)[C@H](Cc3ccc(CC(=O)O)cc3)NC(=O)COc3cc4ccccc4cn3)c2=O)cc1` [Compound 86] it was 3.3 µM; in that of `COc1ccc(Cn2ccc(C)c(NC(=O)[C@H](Cc3ccc(CC(=O)O)cc3)NC(=O)C(F)(F)F)c2=O)cc1` [Compound 87], 18 µM. In the case of `COc1ccc(Cn2ccc(C)c(NC(=O)[C@H](Cc3ccc(CC(=O)O)cc3)NC(=O)Cc3cccc4ccccc34)c2=O)cc1` [Compound 88] it was 4.4 µM; in that of `COc1ccc(Cn2ccc(C)c(NC(=O)[C@H](Cc3ccc(CC(=O)O)cc3)NC(C)=O)c2=O)cc1` [Compound 89], 19 µM; in that of `COc1ccc(Cn2cccc(NC(=O)[C@H](Cc3ccc(CC(=O)O)cc3)NC(=O)Cc3cccc4ccccc34)c2=O)cc1` [Compound 90], more than 250 µM. In the case of `COc1ccc(Cn2c(C)cc(C)c(NC(=O)[C@H](Cc3ccc(CC(=O)O)cc3)NC(=O)Cc3cccc4ccccc34)c2=O)cc1` [Compound 91] it was 4.8 µM. `CCc1ccn(Cc2ccc(OC)cc2)c(=O)c1NC(=O)[C@H](Cc1ccc(CC(=O)O)cc1)NC(=O)Cc1cccc2ccccc12` [Compound 92, 3-[2'-(S)-(1'"-Naphthylacetyl)amino-3'-(4"-carboxymethyl)benzene]propanoylamino-1-(4-methoxy)benzyl-4-ethyl-2-pyridone]: the Kd stood at 3.8 µM.

For the compound `COc1ccc(Cn2ccc(C)c(NC(=O)[C@H](Cc3ccc(CC(=O)O)cc3)NC(=O)Cc3ccc(N(C)C)cc3)c2=O)cc1` [Compound 93], the Kd was found to be 12 µM. With `COc1ccc(Cn2ccc(C)c(NC(=O)[C@H](Cc3ccc(N(O)C(=O)C(=O)O)cc3)NC(C)=O)c2=O)cc1` [Compound 95] the figure was 5.4 µM. With `Cc1ccn(Cc2ccc(C(C)C)cc2)c(=O)c1NC(=O)[C@H](Cc1ccc(N(O)C(=O)C(=O)O)cc1)NC(=O)Cc1ccc(N(C)C)cc1` [Compound 96], the affinity, expressed as Kd, was 23 µM. On to `COc1ccc(Cn2ccc(C)c(NC(=O)[C@H](Cc3ccc(C(C)(C)C(=O)O)cc3)NC(=O)Cc3c[nH]c4ccccc34)c2=O)cc1` [Compound 98], for which the dissociation constant (Kd) stood at 0.43 µM. Turning to `COc1ccc(Cn2ccc(C)c(NC(=O)[C@H](Cc3ccc(C(C)(C)C(=O)O)cc3)NC(=O)Cc3ccc(N(C)C)cc3)c2=O)cc1` [Compound 99], the Kd was 0.13 µM. In turn, `Cc1ccn(Cc2ccc(C(C)C)cc2)c(=O)c1NC(=O)[C@H](Cc1ccc(C(C)(C)C(=O)O)cc1)NC(=O)Cc1c[nH]c2ccccc12` [Compound 100] registered a Kd of 1.5 µM. Regarding `Cc1ccn(Cc2ccc(C(C)C)cc2)c(=O)c1NC(=O)[C@H](Cc1ccc(C(C)(C)C(=O)O)cc1)NC(=O)Cc1cccc2ccccc12` [Compound 101], the Kd is 4.3 µM. `COc1ccc(Cn2ccc(C)c(NC(=O)[C@H](Cc3ccc(NC(=O)C(=O)O)cc3)NC(=O)Cc3ccccc3)c2=O)cc1` [Compound 102] registered a Kd of 1.9 µM. Take `COc1ccc(Cn2ccc(C)c(NC(=O)[C@H](Cc3ccc(NC(=O)C(=O)O)cc3)NC(=O)Nc3ccc(C(C)C)cc3)c2=O)cc1` [Compound 103]: the dissociation constant Kd was 12 µM. With `COc1ccc(Cn2ccc(C)c(NC(=O)[C@H](Cc3ccc(NC(=O)C(=O)O)cc3)NC(=O)Cc3ccc(NC(=O)C(C)(C)C)cc3)c2=O)cc1` [Compound 104] the figure was 0.65 µM; with `COc1ccc(Cn2ccc(C)c(NC(=O)[C@H](Cc3ccc(NC(=O)C(=O)O)cc3)NC(=O)Cc3cccc([N+](=O)[O-])c3)c2=O)cc1` [Compound 105], 0.82 µM. In the case of `COc1ccc(Cn2ccc(C)c(NC(=O)[C@H](Cc3ccc(C(C)(C)C(=O)O)cc3)NC(=O)Cc3ccc(Br)cc3)c2=O)cc1` [Compound 110] it was 0.18 µM; in that of `COc1ccc(Cn2ccc(C)c(NC(=O)[C@H](Cc3ccc(C(C)(C)C(=O)O)cc3)NC(=O)Cc3ccccc3C)c2=O)cc1` [Compound 113], 0.87 µM; in that of `COc1ccc(Cn2ccc(C)c(NC(=O)[C@H](Cc3ccc(C(C)(C)C(=O)O)cc3)NC(=O)Cc3ccc(C)cc3)c2=O)cc1` [Compound 114], 0.19 µM.

As to `COc1ccc(Cn2ccc(C)c(NC(=O)[C@H](Cc3ccc(C(C)(C)C(=O)O)cc3)NC(=O)Cc3ccccc3)c2=O)cc1` [Compound 120], the affinity, expressed as Kd, was 0.43 µM. Take `CCCCCCn1cc(C(=O)OC)c(C)c(NC(=O)C(Cc2ccc(C(C)(C)C(=O)O)cc2)NC(=O)C(C)(C)c2ccc3ccccc3c2)c1=O` (centres unmarked) [Compound 121]: binding was put at a Kd of 2.7 µM.

For `COc1ccc(Cn2cc(Br)c(C)c(NC(=O)C(Cc3ccc(C(C)(C)C(=O)O)cc3)NC(=O)C(C)(C)c3ccc(Br)cc3)c2=O)cc1` (centres unmarked) [Compound 122], the affinity, expressed as Kd, was 5.3 µM. Take `COc1ccc(Cn2ccc(C)c(NC(=O)[C@H](Cc3ccc(C(C)(C)C(=O)O)cc3)NC(=O)Cc3ccc(N(Cc4ccccc4)Cc4ccccc4)cc3)c2=O)cc1` [Compound 131]: the dissociation constant (Kd) was more than 1.3 µM.

On to `Cc1ccn(Cc2ccc(O)cc2)c(=O)c1NC(=O)[C@H](Cc1ccc(C(C)(C)C(=O)O)cc1)NC(=O)C(C)(C)c1cccc2ccccc12` [Compound 134], for which the affinity, expressed as Kd, was 5.7 µM. For the compound `COc1ccc(Cn2ccc(C)c(NC(=O)[C@H](Cc3ccc(C(CO)C(=O)O)cc3)NC(=O)Cc3cccc4ccccc34)c2=O)cc1` (stereo partly drawn) [Compound 136, 3-[2'-(S)-(1'"-Naphthylacetyl)amino-3'-[4"-(1'"-(R,S)-carboxy-2'"-hydroxy)ethyl]benzene]propanoylamino-1-(4-methoxybenzyl)-4-methyl-2-pyridone], the Kd is 5.6 µM. As to `COCCOCCn1ccc(C)c(NC(=O)C(Cc2ccc(C(C)(C)C(=O)O)cc2)NC(=O)Cc2ccc3ccccc3c2)c1=O` (centres unmarked) [Compound 143], the Kd amounted to 6 µM. With `COCCOCCn1ccc(C)c(NC(=O)C(Cc2ccc(C(C)(C)C(=O)O)cc2)NC(=O)C(C)(C)c2ccc3ccccc3c2)c1=O` (centres unmarked) [Compound 144] the figure was 20 µM; with `COC1CCC(Cn2ccc(C)c(NC(=O)C(Cc3ccc(C(C)(C)C(=O)O)cc3)NC(=O)Cc3ccc4ccccc4c3)c2=O)CC1` (centres unmarked) [Compound 147], 1.9 µM. `COC1CCC(Cn2ccc(C)c(NC(=O)C(Cc3ccc(C(C)(C)C(=O)O)cc3)NC(=O)Cc3ccc(C(F)(F)F)cc3)c2=O)CC1` (centres unmarked) [Compound 148]: the dissociation constant (Kd) came to 3.6 µM. With `COc1c(F)c(F)c(Cn2ccc(C)c(NC(=O)C(Cc3ccc(C(C)(C)C(=O)O)cc3)NC(=O)Cc3ccc4ccccc4c3)c2=O)c(F)c1F` (centres unmarked) [Compound 153] the figure was 2.1 µM; with `COc1cc(Cn2ccc(C)c(NC(=O)C(Cc3ccc(C(C)(C)C(=O)O)cc3)NC(=O)Cc3ccc4ccccc4c3)c2=O)cc(OC)c1OC` (centres unmarked) [Compound 157], 21 µM; with `COc1ccc(Cn2ccc(C)c(NC(=O)C(Cc3ccc(C(C)(C)C(=O)O)cc3)NC(=O)Cc3ccc4ccccc4c3)c2=O)cc1O` (centres unmarked) [Compound 160], 5.8 µM. `COc1ccc(Cn2ccc(C)c(NC(=O)C(Cc3ccc(C(C)(C)C(=O)O)cc3)N(C)C(=O)C(C)(C)c3ccc4ccccc4c3)c2=O)cc1` (centres unmarked) [Compound 161] registered a Kd of 460 µM. In the case of `COc1ccc(Cn2ccc(C)c(NC(=O)[C@H](Cc3ccc(CC(=O)O)cc3)NC(=O)Cc3ccc(C(C)(C)C)cc3)c2=O)cc1` [Compound 162] it was 1 µM; in that of `COc1ccc(Cn2ccc(C)c(NC(=O)[C@H](Cc3ccc(CC(=O)O)cc3)NC(=O)Cc3ccc(CC(C)(C)C)cc3)c2=O)cc1` [Compound 163], 1.1 µM; in that of `COc1ccc(Cn2ccc(C)c(NC(=O)[C@H](Cc3ccc(CC(=O)O)cc3)NC(=O)Cc3cccc(OC(C)(C)C)c3)c2=O)cc1` [Compound 164], 1.6 µM. In the case of `COc1ccc(Cn2ccc(C)c(NC(=O)[C@H](Cc3ccc(CC(=O)O)cc3)NC(=O)Cc3cccc(O)c3)c2=O)cc1` [Compound 165] it was 2.8 µM; in that of `COc1ccc(Cn2ccc(C)c(NC(=O)[C@H](Cc3ccc(CC(=O)O)cc3)NC(=O)COc3ccc4ccccc4c3)c2=O)cc1` [Compound 166], 1.7 µM; in that of `COc1ccc(Cn2ccc(C)c(NC(=O)[C@H](Cc3ccc(CC(=O)O)cc3)NC(=O)COc3cccc4c(N(C)C)cccc34)c2=O)cc1` [Compound 167], 1.2 µM. With `COc1ccc(Cn2ccc(C)c(NC(=O)C(Cc3ccc(C(C)(C)C(=O)O)cc3)NC(=O)C(C)C)c2=O)cc1` (centres unmarked) [Compound 170] the figure was 3.9 µM; with `COc1ccc(Cn2ccc(C)c(NC(=O)C(Cc3ccc(C(C)(C)C(=O)O)cc3)NC(=O)C(C)(C)C)c2=O)cc1` (centres unmarked) [Compound 171], 4.3 µM.

As for `COc1ccc(Cn2ccc(C)c(NC(=O)C(Cc3ccc(C(C)(C)C(=O)O)cc3)NC(=O)C(F)(F)F)c2=O)cc1` (centres unmarked) [Compound 176], binding was put at a Kd of 1.8 µM. With `Cc1ccn(C/C=C/c2ccccc2)c(=O)c1NC(=O)C(Cc1ccc(C(C)(C)C(=O)O)cc1)NC(=O)C(C)(C)c1ccc2ccccc2c1` (centres unmarked) [Compound 177] the figure was 3.2 µM; with `COCCOCn1ccc(C)c(NC(=O)C(Cc2ccc(C(C)(C)C(=O)O)cc2)NC(=O)Cc2cccc3ccccc23)c1=O` (centres unmarked) [Compound 188], 45 µM.

For orientation: Kd means the equilibrium constant for the complex coming apart. A lower Kd goes with a tighter complex.
